Experimental data taken from patent US7189702B2, “Glucopyranosyloxypyrazole derivatives and medicinal use thereof” (Kissei Pharmaceutical Co., Ltd., priority 2001, dated 2007).

biological target: T1, human SGLT2 (Homo sapiens, UniProt P31639, I433V); assay: Assay for inhibitory effect on human SGLT2 activity (uptake of methyl-α-D-glucopyranoside); type: cell-based; details: inhibition of methyl-α-D-(U-14C)glucopyranoside uptake, COS-7 cells expressing transiently human SGLT2, 37° C., 2 hours
T1 construct: expressed in transfected cells; host or cells: COS-7 cells (RIKEN CELL BANK RCB0539), transient, electroporation of KL29
T1 sequence (P31639 1-672 I433V): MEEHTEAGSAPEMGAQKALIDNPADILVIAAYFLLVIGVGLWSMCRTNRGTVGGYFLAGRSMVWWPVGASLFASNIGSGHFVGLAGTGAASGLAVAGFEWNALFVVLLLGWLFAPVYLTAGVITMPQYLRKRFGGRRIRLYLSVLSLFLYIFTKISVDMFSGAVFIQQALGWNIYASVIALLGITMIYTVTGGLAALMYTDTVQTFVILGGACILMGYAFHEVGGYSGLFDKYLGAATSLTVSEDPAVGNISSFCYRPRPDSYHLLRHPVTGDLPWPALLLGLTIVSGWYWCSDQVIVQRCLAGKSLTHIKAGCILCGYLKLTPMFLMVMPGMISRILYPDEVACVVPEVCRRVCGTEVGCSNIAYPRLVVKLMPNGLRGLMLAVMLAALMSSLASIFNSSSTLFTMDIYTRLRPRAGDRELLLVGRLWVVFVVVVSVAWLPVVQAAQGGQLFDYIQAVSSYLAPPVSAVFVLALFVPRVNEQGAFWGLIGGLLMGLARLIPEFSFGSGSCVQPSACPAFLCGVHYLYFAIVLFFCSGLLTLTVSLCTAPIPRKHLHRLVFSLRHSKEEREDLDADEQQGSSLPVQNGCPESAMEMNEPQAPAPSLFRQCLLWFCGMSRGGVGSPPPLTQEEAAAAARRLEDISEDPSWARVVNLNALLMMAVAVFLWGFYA
Procedure: Assay for Inhibitory Effect on Human SGLT2 Activity
1) Construction of the Plasmid Vector Expressing Human SGLT2
Preparation of the cDNA library for PCR amplification was performed by reverse transcription of a total RNA deprived from human kidney (Ori gene) with oligo dT as the primer, using SUPERSCRIPT Preamplification System (Gibco-BRL: LIFE TECHNOLOGIES). The DNA fragment coding for human SGLT2 was amplified by the PCR reaction, in which the human kidney cDNA library described above was used as the template and the following oligo nucleotides 0702F and 0712R, presented as Sequence Numbers 1 and 2 respectively, were used as the primers. The amplified DNA fragment was ligated into pCR-Blunt (Invitrogen), a vector for cloning, according to standard method of the kit. The Escherichia coli HB101 was transformed according to usual method and then selection of the transformants was performed on the LB agar medium containing 50 μg/mL of kanamycin. After plasmid DNA was extracted and purified from the one of the transformants, amplifying of the DNA fragment coding for human SGLT2 was performed by the PCR reaction, in which the following oligo nucleotides 0714F and 0715R, presented as Sequence Numbers 3 and 4 respectively, were used as the primers. The amplified DNA fragment was digested with restriction enzymes, Xho I and Hind III, and then purified with Wizard Purification System (Promega). This purified DNA fragment was inserted at the corresponding restriction sites of pcDNA3.1 (−) Myc/His-B (Invitrogen), a vector for expressing of fusion protein. The Escherichia coli HB101 was transformed according to usual method and then selection of the transformant was performed on the LB agar medium containing 100 μg/mL of ampicillin. After plasmid DNA was extracted and purified from this transformant, the base sequence of the DNA fragment inserted at the multi-cloning sites of the vector pcDNA3.1 (−) Myc/His-B was analyzed. […] Sequentially, a clone in which valine is substituted for isoleucine-433 was obtained. This plasmid vector expressing human SGLT2 in which the peptide presented as Sequence Number 5 is fused to the carboxyl terminal alanine residue was designated KL29.
2) Preparation of the Cells Expressing Transiently Human SGLT2
KL29, the plasmid coding human SGLT2, was transfected into COS-7 cells (RIKEN CELL BANK RCB0539) by electroporation. Electroporation was performed with GENE PULSER II (Bio-Rad Laboratories) under the condition: 0.290 kV, 975 μF, 2×10^6 cells of COS-7 cell and 20 μg of KL29 in 500 μL of OPTI-MEM I medium (Gibco-BRL: LIFE TECHNOLOGIES) in the 0.4 cm type cuvette. After the gene transfer, the cells were harvested by centrifugation and resuspended with OPTI-MEM I medium (1 mL/cuvette). To each well in 96-wells plate, 125 μL of this cell suspension was added. After overnight culture at 37° C. under 5% CO2, 125 μL of DMEM medium which is containing 10% of fetal bovine serum (Sanko Jyunyaku), 100 units/mL sodium penicillin G (Gibco-BRL: LIFE TECHNOLOGIES), and 100 μg/mL streptomycin sulfate (Gibco-BRL: LIFE TECHNOLOGIES) was added to each well. These cells were cultured until the next day and then they were used for the measurement of the inhibitory activity against the uptake of methyl-α-D-glucopyranoside.
3) Measurement of the Inhibitory Activity Against the Uptake of methyl-α-D-glucopyranoside
After a test compound was dissolved in dimethyl sulfoxide and diluted with the uptake buffer (a pH 7.4 buffer containing 140 mM sodium chloride, 2 mM potassium chloride, 1 mM calcium chloride, 1 mM magnesium chloride, 5 mM methyl-α-D-glucopyranoside, 10 mM 2-[4-(2-hydroxyethyl)-1-piperazinyl]ethane sulfonic acid and 5 mM tris(hydroxymethyl)aminomethane), each diluent was used as test sample for measurement of the inhibitory activity. […]

| SMILES | IC50 [nM] |
| --- | --- |
| CCc1ccc(Cc2c(O[C@@H]3O[C@H](CO)[C@@H](O)[C@H](O)[C@H]3O)nn(CCCO)c2C)cc1 [Example 39, 4-[(4-Ethylphenyl)methyl]-3-(β-D-glucopyranosyloxy)-1-(3-hydroxypropyl)-5-methyl-1H-pyrazole] | 47 |
| Cc1[nH]nc(O[C@@H]2O[C@H](CO)[C@@H](O)[C@H](O)[C@H]2O)c1Cc1ccc(OC2CCC2)cc1 [Example 27, 4-{[4-(Cyclobutyloxy)phenyl]methyl}-3-(β-D-glucopyranosyloxy)-5-methyl-1H-pyrazole] | 210 |
| OCCCc1ccc(Cc2c(O[C@@H]3O[C@H](CO)[C@@H](O)[C@H](O)[C@H]3O)n[nH]c2C(F)(F)F)cc1 [Example 24, 3-(β-D-Glucopyranosyloxy)-4-{[4-(3-hydroxypropyl)phenyl]methyl}-5-trifluoromethyl-1H-pyrazole] | 57 |
| CC(C)=Cc1ccc(Cc2c(O[C@@H]3O[C@H](CO)[C@@H](O)[C@H](O)[C@H]3O)n[nH]c2C)cc1 [Example 25, 3-(β-D-Glucopyranosyloxy)-5-methyl-4-{[4-(2-methylprop-1-en-1-yl)phenyl]methyl}-1H-pyrazole] | 65 |
| CSc1ccc(Cc2c(C(F)(F)F)[nH][nH]c2=O)cc1 [WAY-123783, reference compound] | > 100000 |
| Cc1[nH]nc(O[C@@H]2O[C@H](CO)[C@@H](O)[C@H](O)[C@H]2O)c1Cc1ccc(-c2ccc(F)cc2)cc1 [Example 26, 4-{[4-(4-Fluorophenyl)phenyl]methyl}-3-(β-D-glucopyranosyloxy)-5-methyl-1H-pyrazole] | 150 |

Further compounds by falling IC50, results first:

| IC50 [nM] | SMILES |
| --- | --- |
| 46 | Cc1[nH]nc(O[C@@H]2O[C@H](CO)[C@@H](O)[C@H](O)[C@H]2O)c1Cc1ccc(-c2nccs2)cc1 [Example 23, 3-(β-D-Glucopyranosyloxy)-5-methyl-4-{[4-(thiazol-2-yl)phenyl]methyl}-1H-pyrazole] |
| 45 | CSc1ccc(Cc2c(O[C@@H]3O[C@H](CO)[C@@H](O)[C@H](O)[C@H]3O)nn(CC3CC3)c2C)cc1 [Example 38, 1-(Cyclopropylmethyl)-3-(β-D-glucopyranosyloxy)-5-methyl-4-[(4-methylthiophenyl)methyl]-1H-pyrazole] |
| 41 | CC/C=C/c1ccc(Cc2c(O[C@@H]3O[C@H](CO)[C@@H](O)[C@H](O)[C@H]3O)n[nH]c2C)cc1 [Example 22, (E)-4-{[4-(But-1-en-1-yl)phenyl]methyl}-3-(β-D-glucopyranosyloxy)-5-methyl-1H-pyrazole] |
| 26 | Cc1c(Cc2ccc(C3CC3)cc2)c(O[C@@H]2O[C@H](CO)[C@@H](O)[C@H](O)[C@H]2O)nn1CC1CC1 [Example 32, 3-(β-D-Glucopyranosyloxy)-5-methyl-1-(cyclopropylmethyl)-4-[(4-cyclopropylphenyl)methyl]-1H-pyrazole] |
| 18 | Cc1[nH]nc(O[C@@H]2O[C@H](CO)[C@@H](O)[C@H](O)[C@H]2O)c1Cc1ccc(C2CC2)cc1 [Example 21, 3-(β-D-Glucopyranosyloxy)-5-methyl-4-[(4-cyclopropylphenyl)methyl]-1H-pyrazole] |
| 15 | Cc1[nH]nc(O[C@@H]2O[C@H](CO)[C@@H](O)[C@H](O)[C@H]2O)c1Cc1ccc(C=C2CC2)cc1 [Example 20, 3-(β-D-Glucopyranosyloxy)-5-methyl-4-{[4-(cyclopropylidenemethyl)phenyl]methyl}-1H-pyrazole] |

same assay, conditions: statement in words

| SMILES | inhibitory activity in human SGLT2 |
| --- | --- |
| CSc1ccc(Cc2c(C(F)(F)F)[nH][nH]c2=O)cc1 [WAY-123783, reference compound] | extremely weak |

system: not given; assay: not given; details: normal mice; J. Med. Chem., Vol. 39, pp. 3920–3928 (1996); cited from earlier work

| SMILES | amount of excreted glucose |
| --- | --- |
| CSc1ccc(Cc2c(C(F)(F)F)[nH][nH]c2=O)cc1 [WAY-123783, reference compound] | increased |
